Test results as given in patent US20060045883A1, “Anti-cancer vaccines” (priority 2004, published 2006).
Values joined by “and” are separate entries in the source; they are usually repeats but may differ in a detail not shown here. Equal entries are not always repeated.

How the values were obtained:
[1] = test system: patients with myeloid leukemia; assay: Phase I/II PR1 peptide vaccine study; type: in vivo, human
Description: PR1 peptide is injected subcutaneously in incomplete Freund's adjuvant every 3 weeks for 3 injections to induce a PR1 specific host response against the myeloid leukemia. […] Vaccination at 3 dose levels of peptide with a fixed amount of IFA will be conducted, and stopping criteria will be guided by established toxicity criteria.
HLA-A2^+ patients with CML (interferon-resistant or relapsed after BMT), AML (smoldering relapse or ≧2nd CR) or MDS (RAEB or RAEBt) with no detectable antibodies to proteinase 3 (no detectable cANCA) were eligible. Patients that relapsed after BMT or those ineligible for BMT were also eligible for study. Pregnant patients, HIV+ patients, and those with known vasculitis were excluded. Patients were required to have immunosuppression (i.e. cyclosporine, steroids) discontinued 4 weeks prior to study entry.
Secondarily, clinical responses were assessed by standard criteria with bone marrow biopsy, cytogenetic studies (standard chromosome banding) and molecular studies (PCR for bcr-abl or other known abnormalities such as t(15;17), inv16, etc.) 3 weeks after the last vaccination. Patients were seen and evaluated in clinic every 3 weeks during the study period. Both vialed PR1 peptide (NSC698102) and the adjuvant (Montanide ISA-51, NSC675756) were used in this study. […]

[2] = test system: human myeloid leukemia cells; assay: Cytotoxicity of peptide-elicited CTL lines against fresh myeloid leukemia marrow and normal marrow; type: cell-based
Text: (§1) PR1 specific CTL preferentially lyse human myeloid leukemia cells. It was next determined whether the PR1-specific CTL line was capable of lysing allogeneic human myeloid leukemia cells from HLA-A2.1 positive individuals. As controls, two cell lines expressing low levels of Pr3 were used: HLA-A2.1 transfected K562 cells and U937 cell line which lack HLA-A2.1 and would therefore be incapable of presenting peptides in an HLA-A2.1-restricted manner. Cryopreserved bone marrow cells from patients P1-P4, and marrow cells from a healthy normal volunteer (D2, a bone marrow donor for an allogeneic bone marrow transplant performed on patient P3) were thawed and used as targets for the PR1-specific CTL line.
(§2) It was next determined whether the MY2 and MY4-specific CTL lines were capable of lysing allogeneic human myeloid leukemia cells from HLA-A2.1 positive individuals. The targets were BM cells from pre-transplant HLA-A2.1-positive AML patients. As controls, BM cells from HLA-A2.1-negative AML patients, BM from HLA-A2.1-positive healthy donors and two cell lines expressing low levels of MPO were used: HLA-A2.1 transfected K562 cells and the U937 cell line which lacks HLA-A2.1 and would therefore be incapable of presenting peptides in an HLA-A2.1-restricted manner.

[3] = as above; type: cell-based, human
Text: as §1, §2

[4] = test system: PR1-CTL from a healthy donor; assay: Annexin V apoptosis of PR1-CTL challenged with peptide-pulsed T2 cells; type: cell-based, human; details: for apoptosis of high avidity PR1-CTL: T2 cells pulsed with 20 μM peptide, Annexin V 16 to 18 hr
Text: High PR1 concentration and proteinase 3-overexpressing CML cells induce apoptosis of high avidity PR1-specific CTL. […] All high avidity PR1-CTL exposed to high dose PR1 were dead after 36 to 48 hr of co-culture.

T2 cells = assay: Peptide-specific cytotoxicity of peptide-elicited CTL lines against peptide-loaded T2 cells; details: T2 cells loaded with the same peptide; 4-hr assay, varying E:T
Description: CTL cytotoxicity assay. A semiautomated minicytotoxicity assay was used to determine specific lysis as described previously (Molldrem, 2000; Molldrem et al., 1996). Briefly, effector cells were prepared in doubling dilutions from 6×10^3 to 25×10^3 cells/well and were plated in 40 μl, 60-well Terasaki trays (Robbins Scientific, Sunnyvale, Calif., USA) with six replicates per dilution. Target cells (T2 cells, marrow-derived leukemic cells, or BM from a healthy donor) at a concentration of 2×10^6 cells/ml were stained with 10 μg/ml of Calcein-AM (Molecular Probes Inc.) for 60 min at 37° C. After washing three times in CM plus 10% AB, target cells were resuspended at 10^5 cells/ml, and 10^3 target cells in 10 μl medium were added to each well containing effector cells. Wells with target cells alone and medium alone were used for maximum (max) and minimum (min.) fluorescence emission, respectively. After 4 hr incubation at 37° C. in 5% CO2, 5 μl FluoroQuench (One Lambda Inc., Canoga Park, Calif., USA) was added to each well, and the trays were centrifuged for 1 min at 60 g before measurement of fluorescence using an automated CytoFluor II plate reader (PerSeptive Biosystems, Framingham, Mass., USA). The percentage of lysis was calculated as follows: % lysis={1−[(mean experimental mission−mean min.)/(mean max−mean min.)]}×100%.
Induction of Primary CTL responses to peptides. These peptides were next used to stimulate T cells specific for peptide-coated targets. PBMC from a normal healthy donor heterozygous for HL-A2.1 were stimulated with peptide-pulsed T2 cells. […] Briefly, T2 cells (which co-express the costimulatory molecule B7.1) were washed 3 times in serum-free RPMI culture media supplemented with penicillin/streptomycin and glutamine (CM) and incubated with peptide at 20 μg/mL for 2 hr in CM. The peptide loaded T2 cells were then irradiated with 7500 cGy, washed once, and suspended with freshly isolated PBMC at a 1:1 ratio in CM supplemented with 10% human serum (HS) (Sigma, St. Louis, Mo.). After 7 days in culture, a second stimulation was performed and the following day, 60 IU/mL of recombinant human interleukin-2 (rhIL2) (Biosource International, Camarillo, Calif.) was added. After 14 days in culture a third stimulation was performed, followed on day 15 by addition of rhIL-2. A fourth stimulation was performed on day 21 followed on day 22 by the addition of rhIL2. After a total of 27 days in culture, the peptide-stimulated T cells were harvested and tested for peptide-specific cytotoxicity toward Calcein AM-labeled T2 cells, leukemia cell lines, and fresh human leukemia cells.
The five MPO peptides discussed above, were used to stimulate T cells specific for peptide-coated targets. […]

[5] = test system: HMy2.CIR-A2 cells transfected with Pr3; assay: Lysis of Pr3-transfected B cells by PR1 specific CTL; type: cell-based, human; details: E:T 25:1
Description: Expression of proteinase 3 following transfection into and HMy2.CIR and HMy2.CIR-A2 cells. […] The parental HMy2.CIR cell line, which has lost expression of HLA-A and -B, and the HLA-A2.1-transfected HMy2.CIR cells (named HMy2.CIR-A2), were both transfected with Pr3 as described below.
Ten million HMy2.CIR (ATCC, Rockville, Md.), or 10 million HMy2.CIR-A2 cells were each washed in phosphate buffered saline (PBS) and re-suspended in 0.8 mL of ice-cold PBS and put into an electroporation cuvette with 20 μg of circular plasmid DNA. The mixture was exposed to an electric pulse of 320 volts at 960 microF and incubated on ice for 10 min. Cells were then added to 10 mL of pre-warmed CM. The following day, the CM was replaced. On day 2, cells were grown under selection conditions using 200 μg/mL Zeocin. Following one week of selection, the cells were subcloned by limiting dilution under Zeocin selection, and 6 clones were isolated.
HMy.2.CIR-A2 cells transfected with Pr3 are susceptible to lysis by PR1 specific CTL. It was next determined whether the transfected HMy2.CIR-A2 cells could be lysed by PR1 specific CTL. The PR1 specific CTL were elicited in the manner previously described, and after 22 days in culture were combined at a 25:1 E:T ratio with HMy2.CIR-A2 transfected either with the Pr3-containing vector pRTZ.2, or the empty vector containing the reporter gene, CAT. […]

HLA-A2.1 = HLA-A2.1 (Homo sapiens, UniProt P04439, D140Y/D185E/D98H/E176V/E277Q/G131W/G231S/I119V/I121R/I166T/I218V/L300P/L318F/N151K/N90K/P208A/P217A/Q86G/Q94H/R138H/R169H/T345S); assay: HLA-A2.1 surface expression on peptide-coated T2 cells by indirect flow cytometry (BB7.2); type: binding; details: for surface HLA-A2.1 expression on peptide-pulsed T2 cells: compared with T2 cells with no added peptide / positive control influenza peptide; for Median Channel of Fluorescence of HLA-A2 Expression on T2: peptide-coated T2 cells, background HLA-A2 22
NE-HMy.CIR-A2 = assay: Proliferation (BrDU incorporation) of PR1-specific CTL lines with NE-transfected B cells; type: cell-based, human; details: CTL lines from two healthy donors
Text: (§3) The leukemia-associated antigen PR1 is derived from both proteinase 3 and neutrophil elastase proteins. The inventors have shown that killing of leukemia cells by PR1-specific CTL correlates with P3 overexpression. However, the PR1 sequence is also contained within neutrophil elastase (NE), which is also aberrantly expressed in leukemia cells. To determine whether PR1 is processed and presented from either protein, P3- and NE-transfected B cells were used as target cells in a proliferation assay with PR1-specific T cells. Full-length P3 and NE cDNA was cloned from the promyelocytic HL-60 cell line based on published sequences. The sequences were subcloned into an EGFP-containing vector (pCMS-EGFP) with a CMV promoter to drive constitutive expression. The B cell line, HMy-CIR, previously stably transfected with the HLA-A*0201 gene, was transfected with P3-pCMS-EGFP and NE-pCMS-EGFP by electroporation for 24 hr. GFP-expressing cells (P3-HMy.CIR-A2 and NE-HMy.CIR-A2, respectively) were selected by FACSorting and high transfection levels were confirmed by fluorescence microscopy. […] By contrast, NE transcript numbers from a transfected clone were 7-fold less than in HL-60 cells. Western blotting confirmed protein expression in the NE-HMy.CIR-A2-transfected cells, although expression was similarly less than in HL-60 cells. […]

[6] = test system: human myeloid leukemia cells; assay: Cytotoxicity of peptide-elicited CTL lines against fresh myeloid leukemia marrow and normal marrow; type: cell-based; remark: listed apart in the source
[7] = test system: P3-HMy.CIR-A2 target cells; assay: Proliferation (BrDU incorporation) of PR1-specific CTL lines with P3-transfected B cells; type: cell-based, human; details: CTL lines from two healthy donors
Text: as §3

peptide-pulsed T2 cells = assay: Elicitation of cyclin E peptide-specific CTL with peptide-pulsed T2 cells; type: cell-based, human; details: PBMCs from 7 HLA-A2 positive normal donors
Text: (§4) Nonameric peptides derived from cyclin E1 and cyclin E2 and predicted to bind to the HLA-A2 allele have similar amino acid sequences, differing only at position 7. Thus, the binding of CCNE1144-152 (cyclin E1 derived) and CCNE2144-152 (cyclin E2 derived) was compared to that of PR1 by a peptide-binding assay. The ability of CCNE1144-152 and CCNE2144-152 to stabilize HLA-A2 on the surface of T2 cells was almost the same as that of PR1 (FI CCNE1144-152/FI PR1=1.008, FI CCNE2144-152/FI PR1=1.189). […] In 3 of 7 donors, CCNE1144-152-stimulated CTL lines killed both CCNE1144-152 and CCNE 2144-152-pulsed T2 cells but not non-peptide-pulsed T2 cells and irrelevant peptide-pulsed T2 cells. In 4 of 7 same donors, CCNE2144-152-stimulated CTL lines killed both CCNE2144-152 and CCNE1144-152-pulsed T2 cells but not non-peptide-pulsed T2 cells and irrelevant peptide-pulsed T2 cells.

HLA-A2 = molecular target: T1, HLA-A2 (Homo sapiens, UniProt P04439, D140Y/D185E/D98H/E176V/E277Q/G131W/G231S/I119V/I121R/I166T/I218V/L300P/L318F/N151K/N90K/P208A/P217A/Q86G/Q94H/R138H/R169H/T345S); assay: Peptide-binding assay: stabilization of HLA-A2 on the surface of T2 cells, compared to PR1
T1 construct: measure HLA-A2.1 surface expression on the A2+ T2 cell line coated with the peptide; host or cells: T2 cells
Text: as §4

[8] = test system: HLA-A2 transfected K562 leukemic cell line; assay: Killing of leukemic cell line by CCNE1 peptide-stimulated CTL lines; type: cell-based, human
Text: Thus, each peptide-specific CTLs can recognize both peptides with HLA-A2, but the immunogenicity of each peptide is different between individuals. Moreover, one of 4 CCNE1144-152-stimulated CTL lines which killed CCNE1144-152-pulsed T2 cell killed HLA-A2 transfected K562 leukemic cell line which is over-expressing cyclin E1 protein, but not non-transfected K562 leukemic cell line. Thus, CCNE1144-152-specific CTL can distinguish leukemic cell lines from normal PBMCs. From the data, it was concluded that cyclin E1/E2 derived peptides are potential tumor-antigens, because 1) cyclin E1/E2 are highly over-expressed in hematological malignancy, 2) cyclin E1/E2 peptides can sufficiently bind to HLA-A2 to stimulate CTL and 3) CCLE1144-152 specific CTL preferentially kills leukemic cell lines HLA-A2 restrictively.

[9] = test system: AML colony-forming units (CFU-GM); assay: Colony inhibition assay with MY4 peptide-pulsed CTL; type: cell-based, human
Text: In contrast there was no inhibition of CFUGM from normal marrow, D1 and D2, the corresponding HLA identical marrow donors for P1 and P2.

VLQELNVTV [PR1, HLA-A2.1-restricted nonamer (aa 169-177) derived from proteinase 3]
PR1-specific CTL immunity elicited (by tetramer staining) ([1]; 0.25, 0.5 or 1.0 mg s.c. every 3 weeks for 3 injections): 6 of 9
complete remissions ([1]; 9 patients (1 AML and 1 CML patient)): 2 patients
specific lysis by CTL specific for PR-1 ([2]; marrow cells from a patient with CML in blast crisis, E:T 25:1): 73%
specific lysis by PR1-specific CTL line ([2]; marrow cells of P1 (CML in chronic phase), E:T 6:1): 53%
lysis by PR1-specific CTL line ([3]; marrow cells from normal healthy donor (D2)): < 20%
apoptosis of high avidity PR1-CTL [4]: underwent apoptosis
apoptosis of low avidity PR1-CTL ([4]; high or low concentrations of PR1): did not undergo apoptosis
peptide-specific lysis by CTL line generated against the peptide (T2 cells): high specific lysis
specific lysis by PR1 specific CTL ([5]; Pr3-transfected cells (clone 1.4)): 36%
lysis of negative control targets by PR1 specific CTL ([5]; normal marrow cells, HL-60, HMy2.CIR with empty vector (CAT), non-transfected parent line): only background lysis
surface HLA-A2.1 expression on peptide-pulsed T2 cells (HLA-A2.1): increased surface HLA-A2.1 expression
Median Channel of Fluorescence of HLA-A2 Expression on T2 (HLA-A2.1): 294
stimulation indices (SI) of PR1-specific CTL lines (NE-HMy.CIR-A2): 1.5 and 2.1
lysis of CML #3 BM cells by CTL elicited with 0.2 μM PR1 ([6]; CTL from patient CML #1, E:T 20:1): 24%±5%
lysis of CML #3 BM cells by CTL elicited with 0.2 μM PR1 ([6]; CTL from patient CML #2, E:T 20:1): 33%±6%
fold greater lysis of CML BM cells, CTL elicited with 0.2 μM vs 20 μM PR1 ([6]; per cell basis, 4-hr cytotoxicity assay): ~2 fold
stimulation indices (SI) of PR1-specific CTL lines [7]: 1.3 and 2.4

CCNE2144-152: nonameric peptide derived from cyclin E2, predicted to bind to the HLA-A2 allele (ILLDWLLEV)
donors in whom peptide-stimulated CTL lines killed peptide-pulsed T2 cells (peptide-pulsed T2 cells): 4 of 7
FI peptide/FI PR1 (HLA-A2 stabilization on T2 cells) (HLA-A2): 1.189

KLLLALAGL [MY2]
lysis of HLA-A2.1-positive AML marrow cells by peptide-specific CTL [2]: readily lysed
specific lysis of HLA-A2+ normal BMC by peptide-specific CTL [3]: 45%
lysis by MY2-specific CTL lines ([3]; marrow cells from HLA-A2.1-positive normal healthy donor, E:T 20:1): 43%
peptide-specific lysis by CTL line generated against the peptide (T2 cells): high specific lysis

CCNE1144-152: nonameric peptide derived from cyclin E1, predicted to bind to the HLA-A2 allele
donors in whom peptide-stimulated CTL lines killed peptide-pulsed T2 cells (peptide-pulsed T2 cells): 3 of 7
CTL lines that killed HLA-A2 transfected K562 but not non-transfected K562 [8]: one of 4
FI peptide/FI PR1 (HLA-A2 stabilization on T2 cells) (HLA-A2): 1.008

RLFPDFFTRV [PR2]
peptide-specific lysis by CTL line generated against the peptide (T2 cells): did not demonstrate any significant cytotoxicity
surface HLA-A2.1 expression on peptide-pulsed T2 cells (HLA-A2.1): increased surface HLA-A2.1 expression
Median Channel of Fluorescence of HLA-A2 Expression on T2 (HLA-A2.1): 273

KLNDVLLIQL [PR7V]
surface HLA-A2.1 expression on peptide-pulsed T2 cells (HLA-A2.1): strong peptide binding

KLNDILLIQL [PR71]
surface HLA-A2.1 expression on peptide-pulsed T2 cells (HLA-A2.1): strong peptide binding

Influenza nucleoprotein: control influenza peptide, Influenza B nucleoprotein (aa 85-94), known high binding affinity to HLA-A2.1 (KLGEFYNQMM) [reference compound]
apoptosis of high avidity PR1-CTL [4]: no apoptosis was observed
Median Channel of Fluorescence of HLA-A2 Expression on T2 (HLA-A2.1): 194

RLFEQVMRI [MY4]
lysis of HLA-A2.1-positive AML marrow cells by peptide-specific CTL [2]: killed AML cells, but not normal cells
specific lysis of HLA-A2+ normal BMC by peptide-specific CTL [3]: no lysis of normal BMC
peptide-specific lysis by CTL line generated against the peptide (T2 cells): tested similarly
inhibition of CFU-GM by MY4 peptide-pulsed CTL ([9]; normal marrow, D1 and D2 (HLA identical donors)): no inhibition
inhibition of CFU-GM by MY4 peptide-pulsed CTL (CTL1) ([9]; patient P1 (M2-AML)): 63%
inhibition of CFU-GM by MY4 peptide-pulsed CTL (CTL1) ([9]; patient P2 (M4-AML)): 34%
